# Test results from patent US20200239412A1, “NEW DERIVATES OF DHAA WITH ELECTROSTATIC TUNING” (priority 2017, published 2020).
# Values joined by “and” are separate entries in the source; they are usually repeats but may differ in a detail not shown here. Equal values may be shown once. Where a name gives a salt, the structure may show the parent alone. Read-outs that look alike come from different tables or passages of the source.
# What was measured:
# [1] = biological target: T1, 3R Shaker Kv channel (M356R/A359R) (Drosophila melanogaster, UniProt P08510, A359R/DEL6-46/M356R); settings: cited from earlier work
# T1 sequence (P08510 other isoform, or with tags, fused parts or gaps DEL6-46/M356R/A359R): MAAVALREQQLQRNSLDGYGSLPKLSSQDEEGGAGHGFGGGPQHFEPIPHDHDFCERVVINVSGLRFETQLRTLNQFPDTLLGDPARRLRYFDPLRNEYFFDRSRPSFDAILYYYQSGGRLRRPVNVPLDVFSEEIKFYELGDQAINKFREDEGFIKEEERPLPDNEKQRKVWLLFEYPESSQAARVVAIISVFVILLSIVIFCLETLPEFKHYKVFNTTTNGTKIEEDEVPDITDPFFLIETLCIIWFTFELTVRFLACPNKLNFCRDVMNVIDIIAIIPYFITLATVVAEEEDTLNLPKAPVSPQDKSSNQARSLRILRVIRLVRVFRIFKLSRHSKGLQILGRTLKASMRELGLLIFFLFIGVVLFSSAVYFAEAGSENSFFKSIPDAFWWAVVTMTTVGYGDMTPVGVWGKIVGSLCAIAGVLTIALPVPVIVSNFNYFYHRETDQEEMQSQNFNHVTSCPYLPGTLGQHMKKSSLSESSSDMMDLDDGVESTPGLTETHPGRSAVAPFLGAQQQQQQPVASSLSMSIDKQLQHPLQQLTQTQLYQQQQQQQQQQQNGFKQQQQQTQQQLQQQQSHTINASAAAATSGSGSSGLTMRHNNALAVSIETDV
# [2] = biological target: T1, 3R Shaker Kv channel (M356R/A359R); assay: in vitro; format: cell-based; settings: for pKa at 100 μM: Drosophila, functional pH dependence, read-out: Functional pKa (pH where half of the maximum G(V) shift was achieved); for G(V) shift: mean
# From the text: (§1) Experiments were made with the Shaker H4 channel incapable of fast N-type inactivation due to a Δ6-46 deletion, referred to as the wt Shaker Kv channel. The 3R Shaker Kv channel with two additional positively charged arginines (M356R/A359R) in the extracellular end of S4, was also used.
# (§2) For the Shaker channels, Bluescript II KS(+) plasmid was linearized with HindIII and synthesis of cRNA were made with the T7 mMessage mMachine kit (Ambion, Austin, Tex.). Point mutations around S4, on the Shaker Kv channel, were introduced using QuickChange Site-Directed Mutagenesis Kit (Agilent Technologies, Santa Clara, Calif.) and sequencing were used for verification.
# (§3) 50 nl cRNA was injected into Xenopus laevis oocytes using a Nanoject injector (Drummond Scientific, Broomall, Pa.) and the oocytes were stored at 8° C. in a modified Barth's solution (MBS) before experiments (16° C., M-channel, 1-2 days). The MBS contained (in mM): 88 NaCl, 1 KCl, 2.4 NaHCO3, 15 HEPES, 0.33 Ca(NO3)2, 0.41 CaCl2), and 0.82 MgSO4, pH was adjusted to 7.5 by NaOH and the MBS was supplemented sodium pyruvate (2.5 mM). All animal experiments were approved by the Linkoping's local Animal Care and Use Committee.
# (§4) Currents were measured 1-6 days after cRNA injection using the two-electrode voltage clamp technique (GeneClamp 500B amplifier, Axon instruments). Signals were low pass filtered at 5 kHz and digitized by a Digidata 1440A converter (Molecular Devices, Sunnyvale, Calif.). The amplifiers leak compensation was used and Clampex 10.2 software (Molecular Devices) was used to obtain data and create voltage protocols. The extracellular control solution contained (in mM): 1 KCl, 88 NaCl, 0.8 MgCl2, 0.4 CaCl2) and 15 HEPES. pH were adjusted with NaOH. Electrode pipettes were made from borosilicate glass capillaries (Harvard apparatus, Kent, UK) using a two stage electrode puller (Narishige, Tokyo, Japan) and resistance was between 0.5-2.0 MO once filled with 3 M KCl solution. In the voltage protocol for the wt and 3R Shaker channel, holding potential was set to −80 mV and steady-state currents were measured at voltages between −80 and +50 mV (wt Shaker Kv channel) or +70 mV (3R Shaker Kv channel), using 5 mV increments, 100 ms. […] Physiol. 143, 173-182 (2014). For the M-channel, holding potential was set to −100 mV, test-voltages were measured between −120 and +50 mV (10 mV increments for 2 s) and tail currents were measured at −30 mV.
# (§5) Control solution was perfused to the recording chamber (0.5 ml/min) and the test solution was added manually with a syringe, in a volume large enough to replace the control solution manifold. Resin acids compounds were dissolved in DMSO (100 mM) and stored at −20° C. Just prior to experiment the compound was diluted to desired concentration in control solution. Recovery was measured after continuously perfusion of control solution, maximum 5 min. All recordings were made with the perfusion off. Experiments were carried out in room temperature (20-23° C.) and chemicals were purchased from Sigma Aldrich if not stated otherwise.
# (§6) Currents were leak subtracted and steady-state currents were measured 80-86 ms after onset of the test voltages (Clampfit 10.5, Molecular Devices). K conductance, GK, was calculated using,
# (§7) where IK is the steady-state current, V the absolute membrane voltage and VK the reversal potential for K ions (−80 mV), and the following Boltzmann curve was used to fit the data:
# (§8) GK(V)=A/(1+exp((V1/2−V)/s)^n (2)
# (§9) where A is the amplitude of the curve, V1/2 the midpoint when n=1, s the slope and n an exponent for better curve fitting, set to n=4. The voltage shift was calculated at 10% of maximal conductance in control curve.
# (§10) To quantify the concentration dependence or pH dependence of the GK(V) shifts the following equation was used:
# (§11) ΔVG(V)=ΔVMAX/(1+c1/2/c), (3)
# R362Q Shaker Kv channel = R362Q Shaker Kv channel (Drosophila melanogaster, UniProt P08510, DEL6-46/R362Q); assay: G(V) shift on Shaker Kv channel S4 mutant R362Q compared with wt R362; format: cell-based; settings: 100 μM, pH 7.4, FIG. 9D
# Chain of R362Q Shaker Kv channel (P08510 other isoform, or with tags, fused parts or gaps DEL6-46/R362Q): as the sequence (P08510 other isoform, or with tags, fused parts or gaps DEL6-46/M356R/A359R) above, with R315M, R318A, R321Q counted along it
# Procedure: as §2
# Currents were measured 1-6 days after cRNA injection using the two-electrode voltage clamp technique (GeneClamp 500B amplifier, Axon instruments). Signals were low pass filtered at 5 kHz and digitized by a Digidata 1440A converter (Molecular Devices, Sunnyvale, Calif.). The amplifiers leak compensation was used and Clampex 10.2 software (Molecular Devices) was used to obtain data and create voltage protocols. The extracellular control solution contained (in mM): 1 KCl, 88 NaCl, 0.8 MgCl2, 0.4 CaCl2) and 15 HEPES. pH were adjusted with NaOH. […] In the voltage protocol for the wt and 3R Shaker channel, holding potential was set to −80 mV and steady-state currents were measured at voltages between −80 and +50 mV (wt Shaker Kv channel) or +70 mV (3R Shaker Kv channel), using 5 mV increments, 100 ms. […] For the M-channel, holding potential was set to −100 mV, test-voltages were measured between −120 and +50 mV (10 mV increments for 2 s) and tail currents were measured at −30 mV. […]
# [3] = biological target: wt Shaker Kv channel (Shaker H4, Δ6-46) (Drosophila melanogaster, UniProt P08510, DEL6-46); assay: Two-electrode voltage clamp, G(V) shift on wt Shaker Kv channel expressed in Xenopus laevis oocytes; format: cell-based
# Chain of wt Shaker Kv channel (Shaker H4, Δ6-46) (P08510 other isoform, or with tags, fused parts or gaps DEL6-46): as the sequence (P08510 other isoform, or with tags, fused parts or gaps DEL6-46/M356R/A359R) above, with R315M, R318A counted along it
# From the text: as §1, §2, §3, §4, §5, §6, §7, §8, §9, §10, §11
# hKv7.2/Kv7.3 (M-channel) = biological target: T2, hKv7.2/Kv7.3 (M-channel) (Homo sapiens, UniProt O43525+O43526); assay: Two-electrode voltage clamp, G(V) shift on human M-channel expressed in Xenopus laevis oocytes; format: cell-based
# T2 construct: expressed in transfected cells; host or cells: Xenopus laevis oocytes (cRNAs mixed 1:1)
# Procedure: Experiments were also made with the human hKv7.2/Kv7.3, referred to as the M-channel. cRNAs were mixed in a 1:1 molar ratio before injection into oocytes. hKv7.2 [GenBank Acc. No. NM_004518]. hKv7.3 [GenBank Acc. No NM_004519].
# as §3, §4, §5
# For the M channel tail currents were measured 18 ms after onset and then plotted against the test voltage. The Boltzmann curve (Eq. 2) was used to fit data and the slope was set to shared value between control and test compound. V1/2 was used to calculate the GK(V) shift.
# as §10, §11
# where ΔVG(v) is the voltage shift, ΔVMAX is the amplitude of the curve, c the concentration, c1/2 the concentration at which half maximum response occur. For compounds with no pH dependence the data was fitted with a horizontal line, with the slope set to 0.
# [4] = pH 7.4, concentration-response of G(V) shift, read-out: c1/2 (half-maximal concentration)
smiles,measurement,setting,value
"CC(C)c1ccc2c(c1)CC[C@H]1[C@](C)(C(=O)O)CCC[C@]21C [DHAA, dehydroabietic acid]",EC50,"[1]; pH 7.4, data from Ottosson et al. Sci. Rep. 5, 13278 (2015), read-out: c1/2 (half-maximal concentration)",98 µM
same,pKa at 100 μM,[2],7.2
"C[C@@]1(C(=O)O)CCC[C@]2(C)c3cc(Cl)c(Cl)c(Cl)c3CCC12 (some centres unmarked) [Wu50, reference compound]",EC50,"[1]; read-out: c1/2 (half-maximal concentration), pH 7.4, data from Ottosson et al. Sci. Rep. 5, 13278 (2015)",37 µM and 36 µM
same,Increase of affinity compared to DHAA (factor),[2]; pH 7.4,2.7
same,Increase of amplitude/efficacy compared to DHAA (factor),[2]; pH 7.4,1.7
"CC(C)c1ccc2c(c1)CC[C@H]1[C@](C)(COS(=O)(=O)O)CCC[C@]21C [Wu161, ((1R,4aS,10aR)-7-isopropyl-1,4a-dimethyl-1,2,3,4,4a,9,10,10a-octahydrophenanthren-1-yl)methyl Hydrogen Sulfate]",EC50,[2]; [4],36 µM and 37 µM
same,Effect on R362Q compared with wt R362,R362Q Shaker Kv channel,about the same effects
same,EC50,[3]; [4],44 µM
same,EC50,"hKv7.2/Kv7.3 (M-channel); concentration-response of G(V) shift, read-out: c1/2 (half-maximal concentration)",41.8 µM and 42 µM
"CC(C)c1ccc2c(c1)CCC1[C@](C)(CCC(=O)O)CCC[C@]21C (stereo partly drawn) [Wu179, 3-((1S,4aS)-7-isopropyl-1,4a-dimethyl-1,2,3,4,4a,9,10,10a-octahydrophenanthren-1-yl)propanoic Acid]",pKa at 100 μM,[2],7.5
same,G(V) shift,"[2]; pH 5.5, 100 μM",2.80 mV
same,G(V) shift,"[2]; pH 6.5, 100 μM",−3.23 mV
same,G(V) shift,"[2]; pH 7.4, 100 μM",−10.43 mV
same,G(V) shift,"[2]; pH 9, 100 μM",−16.63 mV
same,G(V) shift,"[2]; pH 10, 100 μM",−22.83 mV
same,G(V) shift,"[3]; pH 10, 100 μM, mean",−3.83 mV
same,G(V) shift,"hKv7.2/Kv7.3 (M-channel); pH 7.4, 100 μM, mean",−6.68 mV
